The record followed here is US5362364A, “Process for producing alkaline paper” (Mitsubishi Paper Mills Limited, priority 1990, dated 1994).

Each structure is given as a SMILES string.

In data set [1] the test system is slime. The experiment in a line: ninhydrin reaction of the paper stock filtrate (slime formation). The conditions noted are these: for slime inhibiting effect: slimecide added in advance to cationic starch, compared with conventional direct addition. Here is the method: A part of the paper stock as obtained above was stored at 32° C. for 7 days and then, filtered by means of a wire screen. The filtrate was subjected to ninhydrin reaction and the effectiveness of the slimecide controlling agent was evaluated based on the result of the ninhydrin reaction. The filtrate was called "Sample 1-2".
Ninhydrin reaction was effected by adding 0.5 ml of a 1% aqueous solution of nonhydrin to 10 ml of the filtrate, and the result was evaluated depending on the degree of color change of the resulting solution to reddish purple.
A part of the paper stock as obtained above was stored at 32° C. for 7 days and then, filtered by means of a wire net. The filtrate was subjected to ninhydrin reaction and the effectiveness of the slime controlling agent was evaluated based on the result of the ninhydrin reaction. The filtrate was called "Sample 5-2".
(§1) Measurement of the sizing degree, evaluation of the mutagenicity, and ninhydrin reaction in Table 3 and Table 4 were conducted in the same manner as in Table 1 and Table 2.

In data set [2] the test system is Salmonella typyhimurium TA 100. The experiment in a line: mutagenicity test (reverse mutation test) on hand sheet extract, Ministry of Labor Order No. 261. Type of data set: cell-based. The conditions noted are these: compared with Sample 3-1 and 4-1 (DMTT) or Sample 7-1 and 8-1 (bromonitroalcohol).
Protocol: That is, each hand sheet was subjected to extraction using a mixture of benzene/ethanol (9/1, by volume) at 80° C. for three hours, and the resulting extractant was subjected to a reverse mutation test using Salmonella typyhimurium TA 100 without following a metabolism activating method.
When the number of reverse mutation colony increased to twice or more that in the case of dimethyl sulfoxide used as a control solvent, it was determined "positive".
Data set [3] can be described thus: Stockigt sizing degree of paper according to JIS P 8122. The format is physicochemical. The conditions noted are these: compared with Sample 3-1 and 4-1 (DMTT) or Sample 7-1 and 8-1 (bromonitroalcohol). The method, then: The paper stock immediately after prepared was used to prepare a hand sheet having a basis weight of 60 g/m^2. The resulting sheet was dried at 80° C. for 5 min. in a hot air drier. The sheet thus prepared was called "Sample 1-1".
In the above, the sizing degree was measured by Testing method for Stockigt sizing degree of paper according to JIS P 8122.
The 0.1% addition of the alkylketene dimer should develop the sizing degree of 20-25 sec. unless other chemicals used together interfere with it.
The paper stock immediately after prepared was used to prepare a handmade sheet having a basis weight of 60 g/m^2. The resulting sheet was dried at 80° C. for 5 min. in a hot air drier. The sheet thus prepared was called "Sample 5-1".
as §1

Take `O=[N+]([O-])C(Br)(CO)CO` [2-bromo-2-nitropropane-1,3-diol]: the “amount of slimecide relative to amount added in conventional manner” value in data set [1] (slime inhibition with slimecide added in advance to cationic starch, based on paper stock solid matter) is recorded as “about 1/10”. For the same compound, in data set [1], the slime inhibiting effect entry is reported as “slime formation can be effectively inhibited”. Moreover, in data set [2], the safety for man result was “neither harmful to man”. Besides, the effect on sizing entry in data set [3] is “nor adversely affects the sizing property”.

Turning to `CN1CSC(=S)N(C)C1` [DMTT, 3,5-dimethyltetrahydro-1,3,5-2H-thiadiazine-2-thione], in data set [1], the slime inhibiting effect result is “excellent slime inhibiting effect”. Moreover, the effect on sizing entry in data set [3] was “minimal adverse effect on sizing”.
